# Values of other authors in patent US20130344150A1, “DIRECT COMPRESSION TABLETS OF OTILONIUM” (Abdi Ibrahim IIac Sanayi Ve Ticaret Anonim Sirketi, priority 2009, published 2013).
# How the values were obtained:
# [1] = clinical studies
# [2] = tested on: gastrointestinal-motility; conditions: baseline and chemically or physically stimulated
compound,measurement,setting,value
CCCCCCCCOc1ccccc1C(=O)Nc1ccc(C(=O)OCC[N+](C)(CC)CC)cc1 [otilonium bromide],tolerability,[1],good tolerability profile
same,effect on gastrointestinal-motility,[2],inhibits both baseline and chemically or physically stimulated gastrointestinal-motility
